Assay results reported in US12161115B2, “Herbicidal compounds” (SYNGENTA CROP PROTECTION AG, priority 2019, dated 2024).

How the values were obtained:
Type in all cases: in vivo
[1] = system: Alopecurus myosuroides (ALOMY); experiment: Pre-emergence herbicidal glasshouse test; settings: 250 g/Ha, evaluated after 13 days
Protocol: (§1) Seeds of a variety of test species are sown in standard soil in pots (Lolium perenne (LOLPE), Setaria faberi (SETFA), Alopecurus myosuroides (ALOMY), Echinochloa crus-galli (ECHCG), Avena fatua (AVEFA)). After cultivation for one day (pre-emergence) or after 8 days cultivation (post-emergence) under controlled conditions in a glasshouse (at 24/16° C., day/night; 14 hours light; 65% humidity), the plants are sprayed with an aqueous spray solution derived from the formulation of the technical active ingredient in acetone/water (50:50) solution containing 0.5% Tween 20 (polyoxyethelyene sorbitan monolaurate, CAS RN 9005-64-5). Compounds are applied at 250 g/h. The test plants are then grown in a glasshouse under controlled conditions in a glasshouse (at 24/16° C., day/night; 14 hours light; 65% humidity) and watered twice daily. After 13 days for pre and post-emergence, the test is evaluated for the percentage damage caused to the plant. The biological activities are shown in the following table on a five point scale (5=80-100%; 4=60-79%; 3=40-59%; 2=20-39%; 1=0-19%). NT=not tested.

Avena fatua (AVEFA) [2] = experiment: Pre-emergence herbicidal glasshouse test; settings: 250 g/Ha, evaluated after 13 days
Protocol: as §1

[3] = system: Echinochloa crus-galli (ECHCG); experiment: Pre-emergence herbicidal glasshouse test; settings: 250 g/Ha, evaluated after 13 days
Protocol: as §1

Lolium perenne (LOLPE) [4] = experiment: Pre-emergence herbicidal glasshouse test; settings: 250 g/Ha, evaluated after 13 days
Protocol: as §1

Setaria faberi (SETFA) [5] = experiment: Pre-emergence herbicidal glasshouse test; settings: 250 g/Ha, evaluated after 13 days
Protocol: as §1

[6] = system: Alopecurus myosuroides (ALOMY); experiment: Post-emergence herbicidal glasshouse test; settings: 250 g/Ha, evaluated after 13 days
Protocol: as §1

Avena fatua (AVEFA) [7] = experiment: Post-emergence herbicidal glasshouse test; settings: 250 g/Ha, evaluated after 13 days
Protocol: as §1

[8] = system: Echinochloa crus-galli (ECHCG); experiment: Post-emergence herbicidal glasshouse test; settings: 250 g/Ha, evaluated after 13 days
Protocol: as §1

Lolium perenne (LOLPE) [9] = experiment: Post-emergence herbicidal glasshouse test; settings: 250 g/Ha, evaluated after 13 days
Protocol: as §1

Setaria faberi (SETFA) [10] = experiment: Post-emergence herbicidal glasshouse test; settings: 250 g/Ha, evaluated after 13 days
Protocol: as §1

barley crop plants = experiment: Crop phytotoxicity comparison, post-emergence
Protocol: as §1
(§2) Using procedures outlines above, wheat and barley crop plants are treated, post-emergence with compounds A1, A3 or A8 of the present invention or comparator compound C1 (Compound A-38 from WO2014/096289) at the application rates indicated. The compounds were also applied in conjunction with the safener compound cloquintocet-mexyl (CQC) at 50 g/ha.

wheat crop plants = experiment: Crop phytotoxicity comparison, post-emergence
Protocol: as §1, §2

[11] = post-emergence, summary of Table B3
[12] = post-emergence, 60 g/ha + safener cloquintocet-mexyl (CQC) at 50 g/ha

Structure (SMILES) | percentage damage caused to the plant, five point scale, ALOMY [1] | percentage damage caused to the plant, five point scale, AVEFA (Avena fatua (AVEFA) [2]) | percentage damage caused to the plant, five point scale, ECHCG [3] | percentage damage caused to the plant, five point scale, LOLPE (Lolium perenne (LOLPE) [4]) | percentage damage caused to the plant, five point scale, SETFA (Setaria faberi (SETFA) [5]) | percentage damage caused to the plant, five point scale, ALOMY [6] | percentage damage caused to the plant, five point scale, AVEFA (Avena fatua (AVEFA) [7]) | percentage damage caused to the plant, five point scale, ECHCG [8] | percentage damage caused to the plant, five point scale, LOLPE (Lolium perenne (LOLPE) [9]) | percentage damage caused to the plant, five point scale, SETFA (Setaria faberi (SETFA) [10]) | % phytotoxicity observed, Barley (barley crop plants; post-emergence, 30 g/ha) | % phytotoxicity observed, Barley (barley crop plants; post-emergence, 60 g/ha) | damage to barley crop compared to prior art compound C1 (barley crop plants; [11]) | % phytotoxicity observed, Wheat (wheat crop plants; post-emergence, 30 g/ha) | % phytotoxicity observed, Wheat (wheat crop plants; post-emergence, 60 g/ha) | % phytotoxicity observed, Wheat (wheat crop plants; [12]) | damage to wheat crop compared to prior art compound C1 (wheat crop plants; [11]) | damage to barley crop compared to prior art compound C1 (barley crop plants; in vivo) | damage to wheat crop compared to prior art compound C1 (wheat crop plants; in vivo)
CC#Cc1cc(C)c(C2C(=O)CC3(CCN(C(=O)C(C)=NOC)CC3)CC2=O)c(C)c1 [Compound A1, 9-(2,6-dimethyl-4-prop-1-ynyl-phenyl)-3-(2-methoxyiminopropanoyl)-3-azaspiro[5.5]undecane-8,10-dione] | 5 (5=80-100%) | 5 (5=80-100%) | 5 (5=80-100%) | 5 (5=80-100%) | 5 (5=80-100%) | 5 (5=80-100%) | 5 (5=80-100%) | 5 (5=80-100%) | 5 (5=80-100%) | 5 (5=80-100%) | 20% | 40% | significantly less damaging | 10% | 20% | 0% | significantly less damaging | – | –
CC#Cc1cc(C)c(C2C(=O)CC3(CCN(C(=O)C(C)=NOCC)CC3)CC2=O)c(C)c1 [Compound A2] | 5 (5=80-100%) | 5 (5=80-100%) | 5 (5=80-100%) | 5 (5=80-100%) | 5 (5=80-100%) | 5 (5=80-100%) | 5 (5=80-100%) | 5 (5=80-100%) | 5 (5=80-100%) | 5 (5=80-100%) | – | – | – | – | – | – | – | – | –
CC#Cc1cc(C)c(C2C(=O)CC3(CCN(C(=O)/C=N/OC)CC3)CC2=O)c(C)c1 [Compound A3, 9-(2,6-dimethyl-4-prop-1-ynyl-phenyl)-3-[(2E)-2-methoxyiminoacetyl]-3-azaspiro[5.5]undecane-8,10-dione] | 4 (4=60-79%) | 5 (5=80-100%) | 5 (5=80-100%) | 5 (5=80-100%) | 5 (5=80-100%) | 5 (5=80-100%) | 5 (5=80-100%) | 5 (5=80-100%) | 5 (5=80-100%) | 5 (5=80-100%) | – | – | – | – | – | – | – | significantly less damaging | significantly less damaging
CC#Cc1cc(C)c(C2C(=O)CC3(CCN(C(=O)/C(C)=N/O)CC3)CC2=O)c(C)c1 [Compound A4] | 5 (5=80-100%) | 5 (5=80-100%) | 5 (5=80-100%) | 5 (5=80-100%) | 5 (5=80-100%) | 5 (5=80-100%) | 5 (5=80-100%) | 5 (5=80-100%) | 5 (5=80-100%) | 5 (5=80-100%) | – | – | – | – | – | – | – | – | –
CC#Cc1cc(C)c(C2C(=O)CC3(CCN(C(=O)/C(C)=N\O)CC3)CC2=O)c(C)c1 [Compound A5] | 4 (4=60-79%) | 5 (5=80-100%) | 5 (5=80-100%) | 5 (5=80-100%) | 5 (5=80-100%) | 5 (5=80-100%) | 5 (5=80-100%) | 5 (5=80-100%) | 5 (5=80-100%) | 5 (5=80-100%) | – | – | – | – | – | – | – | – | –
CC#Cc1cc(C)c(C2C(=O)CC3(CCN(C(=O)/C(C)=N/Oc4ccccn4)CC3)CC2=O)c(C)c1 [Compound A6, 9-(2,6-dimethyl-4-prop-1-ynyl-phenyl)-3-[(2E)-2-(2-pyridyloxyimino)propanoyl]-3-azaspiro[5.5]undecane-8,10-dione] | 5 (5=80-100%) | 5 (5=80-100%) | 5 (5=80-100%) | 5 (5=80-100%) | 5 (5=80-100%) | 5 (5=80-100%) | 5 (5=80-100%) | 5 (5=80-100%) | 5 (5=80-100%) | 5 (5=80-100%) | – | – | – | – | – | – | – | – | –
CC#Cc1cc(C)c(C2C(=O)CC3(CCN(C(=O)/C(=N\OC)C(C)(C)C)CC3)CC2=O)c(C)c1 [Compound A7] | 4 (4=60-79%) | 2 (2=20-39%) | 5 (5=80-100%) | 5 (5=80-100%) | 5 (5=80-100%) | 4 (4=60-79%) | 3 (3=40-59%) | 5 (5=80-100%) | 5 (5=80-100%) | 5 (5=80-100%) | – | – | – | – | – | – | – | – | –
CC#Cc1cc(C)c(C2C(=O)CC3(CCN(C(=O)/C(C)=N/OC4CCOCC4)CC3)CC2=O)c(C)c1 [Compound A9] | 5 (5=80-100%) | 2 (2=20-39%) | 3 (3=40-59%) | 3 (3=40-59%) | 4 (4=60-79%) | 5 (5=80-100%) | 5 (5=80-100%) | 5 (5=80-100%) | 4 (4=60-79%) | 5 (5=80-100%) | – | – | – | – | – | – | – | – | –
CC#Cc1cc(C)c(C2C(=O)CC3(CCN(C(=O)C(C)=NOCC#N)CC3)CC2=O)c(C)c1 [Compound A10] | 4 (4=60-79%) | 1 (1=0-19%) | 4 (4=60-79%) | 1 (1=0-19%) | 4 (4=60-79%) | 5 (5=80-100%) | 5 (5=80-100%) | 5 (5=80-100%) | 5 (5=80-100%) | 5 (5=80-100%) | – | – | – | – | – | – | – | – | –
CC#Cc1cc(C)c(C2C(=O)CC3(CCN(C(=O)C(C)=NOCCOC)CC3)CC2=O)c(C)c1 [Compound A11] | 5 (5=80-100%) | 3 (3=40-59%) | 5 (5=80-100%) | 5 (5=80-100%) | 5 (5=80-100%) | 5 (5=80-100%) | 5 (5=80-100%) | 5 (5=80-100%) | 5 (5=80-100%) | 5 (5=80-100%) | – | – | – | – | – | – | – | – | –
CC#Cc1cc(C)c(C2C(=O)CC3(CCOCC3)CC2=O)c(C)c1 [Compound C1, reference compound] | – | – | – | – | – | – | – | – | – | – | 80% | 90% | – | 40% | 70% | 60% | – | – | –
